Values of other authors, collected in patent US20110046396A1, “POLYMORPHIC FORMS OF FLUVASTATIN SODIUM AND PROCESS FOR PREPARING THE SAME” (JUBILANT ORGANOSYS LIMITED, priority 2005, published 2011).

Conditions: compared with Form A or the amorphous form of Fluvastatin sodium; described in U.S. Pat. No. 6,124,340

In the case of `CC(C)n1c(/C=C/[C@H](O)C[C@H](O)CC(=O)[O-])c(-c2ccc(F)cc2)c2ccccc21.[Na+]` (racemic) [Form B, (±)-7-(3-(4-fluorophenyl)-1-(1-methylethyl)-1H-indol-2-yl)-3,5-dihydroxy-6-heptenoic acid monosodium salt], the hygroscopicity is given as “less hygroscopic than Form A or the amorphous form”.
